Data reported in US10829446B2, “Aryl sulfonohydrazides” (MONASH UNIVERSITY, priority 2015, dated 2020).
pIC50: −log10 of the molar value.

What was measured:
MOZ enzyme = MOZ enzyme (Homo sapiens (Human), UniProt Q92794); test: Moz biochemical assay (AlphaScreen histone H4 peptide acetylation)
INK4a and ARF null cells = test: Bioassay 1 repeated in INK4a and ARF null cells; type: cell-based; settings: 1 μM, 2 μM, 5 μM, 10 μM
Procedure: Cells are plated in triplicate cultures at 10,204 cells/cm^2 in the presence of a test compound. Compounds are tested at 500 nM, 1 μM, 2 μM, 5 μM, 10 μM and 20 μM. Control compounds include those that have a similar structure but show no activity in biochemical assays. After 48 hours, cells are passaged and counted, then replated at 10,204/cm^2. This procedure is continued for 336 hours. The total number of cells produced at each passage is then calculated and compared between treatment groups. […] Cells are analysed by flow cytometry for the absence of markers of apoptosis by staining with propidium iodide and FITC-conjugated annexin V. The level of DNA damaged is assessed by γH2A.X staining, a marker of DNA strand breaks.
The mechanism of action of these compounds, i.e. causing cell cycle arrest and senescence, was confirmed by repeating this assay using cells in which the INK4a/ARF pathways was inactivated by genetic deletion of a key exon common to both INK4a and the alternative splice product of the CDKN2a locus ARF.

B cell lineage = test: Bioassay 10: effect on the B cell lineage in treated mice; type: in vivo; settings: for numbers of pre B cells in the bone marrow: in words, daily I.P. injection; for immature B cells, percentage of WBC per femur / mature B cells, percentage of WBC per femur / pre-B cells, percentage of WBC per femur / pro-B cells, percentage of WBC per femur: wild type mice, 50 mg/kg I.P. daily
Procedure: Mice were treated with compounds at the dosage of 50 mg/kg by I.P injection. Compounds are prepared for injection as a slurry in 50% PEG400/H2O. The effect on the B cell lineage is determined by fluorescent cytometry using characteristic cell surface markers expressed at different stages of B cell development.

Cdc6 mRNA = test: Bioassay 2: RT-qPCR of MOZ target genes in mouse embryonic fibroblasts; type: cell-based; settings: 5 μM
Procedure: Mouse embryonic fibroblasts are isolated from wild type or Moz heterozygous animals and cultured at 3% oxygen/5% carbon dioxide/92% nitrogen. Cells are plated at a density of 1,020 cells/cm^2 or 2,040 cells/cm^2 or 10,204 cells/cm^2. A reference value for MOZ inhibition is generated through comparison with cells with a complete null mutation of MOZ. The absence of a functional Moz gene leads to senescence in 7-14 days at 3% oxygen.
Cells are plated in triplicate at 2,040 cells/cm^2 in the presence of a test compound. Compounds are tested at 500 nM, 1 μM, 2 μM, 5 μM, 10 μM and 20 μM. Control compounds include those that have a similar structure but show no activity in biochemical assays. […] RT-qPCR is used to assay the levels of MOZ target genes Ink4a, ink4b, Arf, Cdc6, Cdca8, Cdca2, E2f2, Ezh2, Skp2 and Melk.

wild type pre-B cells = test: Bioassay 9: cell cycle analysis (DNA content and BrdU); type: cell-based; settings: 1 μM
Procedure: Pre B cells are isolated from bone marrow according to the criterion: cell surface expression of B220, CD19, but not cKit or IgM. Pre-B cells are cultured on OP9 cells with IL7 in the presence of compounds at various concentrations. The stages of the cell cycle in pre-B cells with and without treatment is analysed using flow cytometry to assay, using a stain for DNA content combined with BrdU to determine the proportion of cells in S phase.

Wild type pre B cells [1] = test: Bioassay 7: pre-B cell number dose response, wild type; type: cell-based; settings: in words
Procedure: Pre B cells are isolated from bone marrow according to the criterion: cell surface expression of B220, CD19, but not cKit or IgM. Pre-B cells are cultured on OP9 cells with IL7 in the presence of compounds at concentrations from 0.01 μM to 20 μM in vitro for 4 days. Cell number is then enumerated and an IC50 is calculated.

[2] = test system: Eμ-Myc pre-leukemia pro-B cells; test: Bioassay 5: pro-B cell colony formation in methylcellulose, Eμ-Myc; type: cell-based; settings: 1 μM, Eμ-Myc pre-leukemia pro-B cells
Procedure: (§1) Pro-B cells are purified by positive selection using antiCD19-magnetic beads and fluorescence activated cell sorting using the criterion: cell surface expression of B220, CD19 and cKit but not IgM. After purification, 25,000 pro-B cells are seeded onto 3.5 cm culture dishes plate containing methylcellulose (MethoCult M3630, STEM CELL technologies) for 7 days. After 7 days culture, colonies in which there were more than 50 cells are counted. Subsequently, 190,000 pro-B cells are replated into methylcellulose for another 7 days of culture, followed by enumeration.

Wild type pre B cells [3] = test: Bioassay 8: cell cycle analysis (DNA content and Ki67); type: cell-based; settings: 1 μM
Procedure: Pre B cells are isolated from bone marrow according to the criterion: cell surface expression of B220, CD19, but not cKit or IgM. Pre-B cells are cultured on OP9 cells with IL7 in the presence of compounds at various concentrations. The stages of the cell cycle in cultured pre-B cells with and without treatment is analysed by flow cytometry using a stain for DNA content combined with the cell cycle marker Ki67 to enumerate the proportion of cells in different phases of the cell cycle.

wild type pro-B cells = test: Bioassay 5: pro-B cell colony formation in methylcellulose, wild type; type: cell-based
Procedure: as §1

Sequence of MOZ enzyme (Q92794 whole entry, species assumed): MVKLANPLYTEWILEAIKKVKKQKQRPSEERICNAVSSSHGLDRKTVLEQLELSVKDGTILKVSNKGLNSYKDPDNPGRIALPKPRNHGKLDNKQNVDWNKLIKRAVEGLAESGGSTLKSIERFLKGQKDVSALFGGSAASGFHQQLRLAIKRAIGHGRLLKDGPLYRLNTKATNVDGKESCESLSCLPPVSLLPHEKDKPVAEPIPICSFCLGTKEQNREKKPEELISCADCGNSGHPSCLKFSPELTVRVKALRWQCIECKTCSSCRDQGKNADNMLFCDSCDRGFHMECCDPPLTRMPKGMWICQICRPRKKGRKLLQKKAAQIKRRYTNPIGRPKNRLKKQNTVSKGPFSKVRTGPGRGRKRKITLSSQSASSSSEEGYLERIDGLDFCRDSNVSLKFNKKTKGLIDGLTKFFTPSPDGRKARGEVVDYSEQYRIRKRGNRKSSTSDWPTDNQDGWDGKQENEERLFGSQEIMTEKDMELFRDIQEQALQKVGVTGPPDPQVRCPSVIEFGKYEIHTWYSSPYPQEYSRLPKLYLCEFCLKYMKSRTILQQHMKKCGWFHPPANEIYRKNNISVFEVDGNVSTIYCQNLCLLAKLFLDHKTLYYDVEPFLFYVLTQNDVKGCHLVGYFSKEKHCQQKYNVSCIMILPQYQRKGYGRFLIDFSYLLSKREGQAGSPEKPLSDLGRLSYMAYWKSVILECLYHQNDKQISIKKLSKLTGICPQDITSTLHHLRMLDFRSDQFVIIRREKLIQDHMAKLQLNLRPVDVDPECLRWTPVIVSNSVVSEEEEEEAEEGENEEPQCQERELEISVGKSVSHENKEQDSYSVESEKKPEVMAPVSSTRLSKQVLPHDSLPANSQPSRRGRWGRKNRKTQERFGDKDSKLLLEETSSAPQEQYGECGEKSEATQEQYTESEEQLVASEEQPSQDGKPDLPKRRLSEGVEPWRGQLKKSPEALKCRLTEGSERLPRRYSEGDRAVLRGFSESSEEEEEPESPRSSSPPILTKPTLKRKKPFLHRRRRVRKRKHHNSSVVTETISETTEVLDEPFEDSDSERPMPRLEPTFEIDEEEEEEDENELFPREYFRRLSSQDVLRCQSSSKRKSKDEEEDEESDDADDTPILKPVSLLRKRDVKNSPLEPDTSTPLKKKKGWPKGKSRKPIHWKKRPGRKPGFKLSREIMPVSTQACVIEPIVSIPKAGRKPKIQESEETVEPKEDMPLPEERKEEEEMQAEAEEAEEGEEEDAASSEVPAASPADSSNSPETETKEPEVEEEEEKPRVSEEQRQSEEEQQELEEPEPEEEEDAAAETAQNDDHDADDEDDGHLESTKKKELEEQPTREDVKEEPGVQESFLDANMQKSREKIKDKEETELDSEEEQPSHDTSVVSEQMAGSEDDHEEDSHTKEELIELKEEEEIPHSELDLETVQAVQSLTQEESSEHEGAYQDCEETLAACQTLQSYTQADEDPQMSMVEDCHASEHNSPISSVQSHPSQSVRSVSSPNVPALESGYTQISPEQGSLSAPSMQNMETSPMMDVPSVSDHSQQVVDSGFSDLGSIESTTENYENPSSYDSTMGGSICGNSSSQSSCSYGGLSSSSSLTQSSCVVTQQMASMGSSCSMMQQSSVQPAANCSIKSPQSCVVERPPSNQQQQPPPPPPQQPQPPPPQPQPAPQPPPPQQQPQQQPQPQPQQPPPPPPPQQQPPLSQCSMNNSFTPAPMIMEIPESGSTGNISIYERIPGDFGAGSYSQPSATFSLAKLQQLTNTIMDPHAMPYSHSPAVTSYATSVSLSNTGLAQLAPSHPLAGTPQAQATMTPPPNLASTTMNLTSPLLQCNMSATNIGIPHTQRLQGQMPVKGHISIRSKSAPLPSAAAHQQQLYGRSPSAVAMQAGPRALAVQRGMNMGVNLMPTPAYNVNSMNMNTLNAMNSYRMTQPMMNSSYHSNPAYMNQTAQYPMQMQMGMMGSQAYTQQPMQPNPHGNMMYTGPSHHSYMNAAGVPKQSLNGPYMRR

Row | pIC50 (MOZ enzyme) | Compound | also measured
1 | 5.53 | O=C(NNS(=O)(=O)c1ccc2ccccc2c1)c1cccc(-c2ccccc2)c1 [Compound 1] | –
2 | 6.54 | O=C(NNS(=O)(=O)c1ccccc1)c1cccc(-c2ccccc2)c1 [Compound 2] | –
3 | 5.11 | CC(C)c1cccc(C(=O)NNS(=O)(=O)c2ccc3ccccc3c2)c1 [Compound 3] | –
4 | 6.71 | Cc1cccc(C(=O)NNS(=O)(=O)c2ccc3ccccc3c2)c1F [Compound 4] | –
5 | 5.69 | O=C(NNS(=O)(=O)c1ccccc1)c1cccc(I)c1 [Compound 6] | –
6 | 5.13 | O=C(NNS(=O)(=O)c1ccccc1)c1cccc(-c2cc[nH]n2)c1 [Compound 7] | –
7 | 6.79 | O=C(NNS(=O)(=O)c1ccccc1)c1cccc(-c2ccsc2)c1 [Compound 8] | –
8 | 6.33 | O=C(NNS(=O)(=O)c1ccccc1)c1cccc(-c2cccs2)c1 [Compound 14] | –
9 | 5.42 | O=C(NNS(=O)(=O)c1ccccc1)c1cccc(-c2ccc(F)cc2)c1 [Compound 25] | –
10 | 4.40 | COc1ccc(-c2cccc(C(=O)NNS(=O)(=O)c3ccccc3)c2)cc1 [Compound 26] | –
11 | 4.95 | COc1ccccc1-c1cccc(C(=O)NNS(=O)(=O)c2ccccc2)c1 [Compound 27] | –
12 | 5.49 | COc1cccc(-c2cccc(C(=O)NNS(=O)(=O)c3ccccc3)c2)c1 [Compound 28] | –
13 | 6.26 | O=C(NNS(=O)(=O)c1ccccc1)c1cccc(-c2ccccc2F)c1 [Compound 29] | –
14 | 6.14 | O=C(NNS(=O)(=O)c1ccccc1)c1cccc(-c2cccc(F)c2)c1 [Compound 30] | –
15 | 5.07 | N#Cc1cccc(-c2cccc(C(=O)NNS(=O)(=O)c3ccccc3)c2)c1 [Compound 31] | –
16 | 4.59 | O=C(NNS(=O)(=O)c1ccccc1)c1cccc(-c2ccc(Cl)cc2)c1 [Compound 32] | –
17 | 6.57 | O=C(NNS(=O)(=O)c1ccccc1)c1cccc(-c2ccccc2)c1F [Compound 33] | –
18 | 5.10 | O=C(NNS(=O)(=O)c1ccccc1)c1cccc(-c2ccccc2Cl)c1 [Compound 34] | –

Row | pIC50 (MOZ enzyme) | Compound | also measured
19 | 7.09 | O=C(NNS(=O)(=O)c1ccccc1)c1cc(-c2ccccc2)cc(Cl)c1F [Compound 35] | –
20 | 4.07 | O=C(NNS(=O)(=O)c1ccccc1)c1cc(-c2cccs2)cc(Cl)c1F [Compound 37] | inhibition of cell proliferation (INK4a and ARF null cells): no inhibition of cell proliferation was detected
21 | – | O=C(NNS(=O)(=O)c1ccccc1F)c1cc(F)cc(-c2ccccn2)c1 [Compound 46] | numbers of pre B cells in the bone marrow (B cell lineage): markedly reduced numbers of pre B cells in the bone marrow; immature B cells, percentage of WBC per femur (B cell lineage): 3.33%; mature B cells, percentage of WBC per femur (B cell lineage): 3.65%; pre-B cells, percentage of WBC per femur (B cell lineage): 10.59%; pro-B cells, percentage of WBC per femur (B cell lineage): 1.14%
22 | – | Cc1cc(-c2ncccn2)cc(C(=O)NNS(=O)(=O)c2ccccc2)c1F [Compound 53] | CDC6 mRNA % control (Cdc6 mRNA): 62.8%
23 | – | O=C(NNS(=O)(=O)c1ccccc1F)c1cc(F)cc(-n2cccn2)c1 [Compound 64] | CDC6 mRNA % control (Cdc6 mRNA): 60.9%
24 | 6.94 | O=C(NNS(=O)(=O)c1ccccc1F)c1cccc(OCC2CC2)c1 [Compound 90] | –
25 | 4.88 | O=C(NNS(=O)(=O)c1ccccc1)c1cccc(-c2cccnc2)c1 [Compound 98] | –
26 | 4.72 | O=C(NNS(=O)(=O)c1ccccc1)c1ccnc(-c2ccccc2)c1 [Compound 106] | –
27 | – | O=C(NNS(=O)(=O)c1ccccc1)c1cc(-c2ccnnc2)ccc1F [Compound 108] | cells in G0/G1 (BrdU) (wild type pre-B cells): 44.2; cells in G2/M (BrdU) (wild type pre-B cells): 5.2; cells in S (BrdU) (wild type pre-B cells): 46.2; effect on pre B cell proliferation (Wild type pre B cells [1]): has no effect; colony number ([2]; primary colonies): 180.5; colony number, secondary colony formation ([2]; secondary colony formation): 78; cells in G0 (Wild type pre B cells [3]; cultured for 4 days): 10.8%; cells in G1 (Wild type pre B cells [3]; cultured for 4 days): 53.7%; cells in G2/M (Wild type pre B cells [3]; cultured for 4 days): 12.1%; cells in S (Wild type pre B cells [3]; cultured for 4 days): 23.6%; cells in G0 (Wild type pre B cells [3]; cultured for 6 days): 8.6%; cells in G1 (Wild type pre B cells [3]; cultured for 6 days): 62.0%; cells in G2/M (Wild type pre B cells [3]; cultured for 6 days): 8.5%; cells in S (Wild type pre B cells [3]; cultured for 6 days): 14.7%; colony number (wild type pro-B cells; 1 μM, wild type pro-B cells, primary colonies): 245.125; colony number, secondary colony formation (wild type pro-B cells; 1 μM, wild type pro-B cells, secondary colony formation): 77; colony formation (wild type pro-B cells; in words, compared to vehicle): inactive
28 | 4.67 | O=C(NNS(=O)(=O)c1ccccc1)c1cncc(-c2ccccc2)c1 [Compound 109] | –
29 | 4.78 | O=C(NNS(=O)(=O)c1ccccc1)c1cccc(-c2ccccc2)n1 [Compound 116] | –
30 | 6.08 | O=C(NNS(=O)(=O)c1ccccc1)c1cc(-c2ccc(F)cc2)ccc1F [Compound 133] | –
31 | – | CCOc1cc(C)cc(C(=O)NNS(=O)(=O)c2ccccc2F)c1 [Compound 137] | numbers of pre B cells in the bone marrow (B cell lineage): markedly reduced numbers of pre B cells in the bone marrow; immature B cells, percentage of WBC per femur (B cell lineage): 3.92%; mature B cells, percentage of WBC per femur (B cell lineage): 3.16%; pre-B cells, percentage of WBC per femur (B cell lineage): 12.71%; pro-B cells, percentage of WBC per femur (B cell lineage): 1.01%; CDC6 mRNA % control (Cdc6 mRNA): 67.5%
32 | 4.04 | O=S(=O)(NNCc1cccc(-c2cccc(Cl)c2)c1)c1ccccc1 [Compound 147] | –
33 | 5.75 | Cc1cccc(C(=O)NNS(=O)(=O)c2ccc3ccccc3c2)c1 [Compound 148] | –
34 | 8.00 | Cc1cc(-c2ccccc2)c(F)c(C(=O)NNS(=O)(=O)c2ccccc2)c1F [Compound 154] | –
35 | 7.15 | Cc1cc(-n2cccn2)c(F)c(C(=O)NNS(=O)(=O)c2ccccc2)c1F [Compound 155] | –
36 | 7.77 | O=C(NNS(=O)(=O)c1ccccc1)c1cc(-c2ccccc2)ccc1F [Compound 157] | –
